Test results: patent publication US9409907B2, “Inhibitor compounds” (Cancer Research Technology Limited, priority 2012, dated 2016)

The compounds below were run against full length MPS1 (Homo sapiens (Human), UniProt P33981) (assay: Measurement of inhibition of MPS1 kinase (Caliper EZ reader mobility-shift enzyme assay)). Settings: full length MPS1 12.5 nM or 3 nM, H236 peptide 5 μM, ATP 10 μM, 60 min at room temperature.
Format: biochemical
Experimental: Measurement of Inhibition of MPS1 Kinase
The reaction was carried out for 60 min at room temperature and stopped by the addition of buffer (10 μl) containing 20 mM EDTA, 0.05% (v/v) Brij-35, in 0.1M HEPES-buffered saline (Free acid, Sigma, UK). The plate was read on a Caliper EZ reader II (Caliper Life Sciences).
The % inhibition of the compounds is calculated relative to the means of selected control wells.

full length MPS1, sequence (P33981 whole entry): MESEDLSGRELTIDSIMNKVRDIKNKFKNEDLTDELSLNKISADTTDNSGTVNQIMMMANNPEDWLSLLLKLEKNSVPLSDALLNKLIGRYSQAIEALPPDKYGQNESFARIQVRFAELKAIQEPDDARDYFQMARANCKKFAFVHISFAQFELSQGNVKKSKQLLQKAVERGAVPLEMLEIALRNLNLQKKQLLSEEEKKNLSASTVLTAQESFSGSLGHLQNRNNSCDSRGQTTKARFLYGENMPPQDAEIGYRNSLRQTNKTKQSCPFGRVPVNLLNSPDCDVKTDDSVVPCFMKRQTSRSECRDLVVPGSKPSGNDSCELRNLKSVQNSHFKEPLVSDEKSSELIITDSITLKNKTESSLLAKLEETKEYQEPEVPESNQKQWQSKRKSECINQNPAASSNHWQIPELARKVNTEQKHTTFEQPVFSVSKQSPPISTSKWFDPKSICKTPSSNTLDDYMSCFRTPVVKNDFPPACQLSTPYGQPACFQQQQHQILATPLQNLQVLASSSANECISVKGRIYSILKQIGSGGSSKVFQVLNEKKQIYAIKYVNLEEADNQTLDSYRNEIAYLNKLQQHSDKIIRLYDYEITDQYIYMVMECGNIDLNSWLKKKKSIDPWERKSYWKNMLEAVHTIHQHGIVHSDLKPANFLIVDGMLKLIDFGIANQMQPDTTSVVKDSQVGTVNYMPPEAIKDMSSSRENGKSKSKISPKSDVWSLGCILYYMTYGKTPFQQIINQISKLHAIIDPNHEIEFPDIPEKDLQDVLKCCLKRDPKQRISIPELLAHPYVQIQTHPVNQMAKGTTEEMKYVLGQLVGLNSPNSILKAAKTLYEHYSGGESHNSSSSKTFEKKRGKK

Row | IC50 [nM] | SMILES
1 | 3 | COc1nc(-c2cnn(C)c2C)ccc1Nc1ncc2ccnc(NCC(C)(C)OC)c2n1 [Example 165, N^2-(6-(1,5-dimethyl-1H-pyrazol-4-yl)-2-methoxypyridin-3-yl)-N^8-(2-methoxy-2-methylpropyl)pyrido[3,4-d]pyrimidine-2,8-diamine]
2 | 3 | COc1nc(-c2cnnn2C)ccc1Nc1ncc2ccnc(NCC(C)(C)OC)c2n1 [Example 166, N^8-(2-Methoxy-2-methylpropyl)-N^2-(2-methoxy-6-(1-methyl-1H-1,2,3-triazol-5-yl)pyridin-3-yl)pyrido[3,4-d]pyrimidine-2,8-diamine]
3 | 23 | COc1nc(-c2cnn(C)n2)ccc1Nc1ncc2ccnc(NCC(C)(C)OC)c2n1 [Example 167, N^8-(2-Methoxy-2-methylpropyl)-N^2-(2-methoxy-6-(2-methyl-2H-1,2,3-triazol-4-yl)pyridin-3-yl)pyrido[3,4-d]pyrimidine-2,8-diamine]
4 | 27 | CCc1cc(-c2cnn(C)c2)ccc1Nc1ncc2ccnc(NCC(C)(C)C)c2n1 [Example 168, N2-(2-ethyl-4-(1-methyl-1H-pyrazol-4-yl)phenyl)-N8-neopentylpyrido[3,4-d]pyrimidine-2,8-diamine]
5 | 48 | Cn1cc(-c2ccc(Nc3ncc4ccnc(NCC(C)(C)C)c4n3)c(OC(F)(F)F)c2)cn1 [Example 169, N2-(4-(1-methyl-1H-pyrazol-4-yl)-2-(trifluoromethoxy)phenyl)-N8-neopentylpyrido[3,4-d]pyrimidine-2,8-diamine]
6 | 4 | COc1cc(N2CCC(N3CCOCC3)CC2)ccc1Nc1ncc2ccnc(NCC(C)(C)C)c2n1 [Example 170, N2-(2-methoxy-4-(4-morpholinopiperidin-1-yl)phenyl)-N8-neopentylpyrido[3,4-d]pyrimidine-2,8-diamine]
7 | 65 | COc1cc(N2CCCCC2)ccc1Nc1ncc2ccnc(NCC(C)(C)C)c2n1 [Example 171, N2-(2-methoxy-4-(piperidin-1-yl)phenyl)-N8-neopentylpyrido[3,4-d]pyrimidine-2,8-diamine]
8 | 12 | COc1cc(N2CCC(C(=O)N3CCOCC3)CC2)ccc1Nc1ncc2ccnc(NCC(C)(C)C)c2n1 [Example 172, (1-(3-methoxy-4-((8-(neopentylamino)pyrido[3,4-d]pyrimidin-2-yl)amino)phenyl)piperidin-4-yl)(morpholino)methanone]
9 | 4 | COc1cc(N2CCN(C)CC2)ccc1Nc1ncc2ccnc(NCC(C)(C)C)c2n1 [Example 173, N2-(2-methoxy-4-(4-methylpiperazin-1-yl)phenyl)-N8-neopentylpyrido[3,4-d]pyrimidine-2,8-diamine]
10 | 10 | CC(C)(C)CNc1nccc2cnc(Nc3ccc(N4CCOCC4)cc3Cl)nc12 [Example 174, N2-(2-chloro-4-morpholinophenyl)-N8-neopentylpyrido[3,4-d]pyrimidine-2,8-diamine]
11 | 3 | COc1cc(N2CCN(S(C)(=O)=O)CC2)ccc1Nc1ncc2ccnc(NCC(C)(C)C)c2n1 [Example 176, N2-(2-methoxy-4-(4-(methylsulfonyl)piperazin-1-yl)phenyl)-N8-neopentylpyrido[3,4-d]pyrimidine-2,8-diamine]
12 | 24 | COc1cc(Cl)ccc1Nc1ncc2ccnc(N3CCC4(COC4)C3)c2n1 [Example 178, N-(4-Chloro-2-methoxyphenyl)-8-(2-oxa-6-azaspiro[3.4]octan-6-yl)pyrido[3,4-d]pyrimidin-2-amine]

Row | SMILES | IC50 [nM]
13 | COc1cc(-c2nncn2C)ccc1Nc1ncc2ccnc(NCC(C)(C)C)c2n1 [Example 175, N2-(2-methoxy-4-(4-methyl-4H-1,2,4-triazol-3-yl)phenyl)-N8-neopentylpyrido[3,4-d]pyrimidine-2,8-diamine] | 2
14 | COc1cc(-c2cnc(C)n2C)ccc1Nc1ncc2cc(C)nc(NCC(C)(C)C)c2n1 [Example 177, N2-(4-(1,2-dimethyl-1H-imidazol-5-yl)-2-methoxyphenyl)-6-methyl-N8-neopentylpyrido[3,4-d]pyrimidine-2,8-diamine] | 5
